Data as given in patent US12458614B2, “Therapeutic agents for improved mobility and cognitive function and for treating neurodegenerative diseases and lysosomal storage disorders” (priority 2017, dated 2025).

What was measured:
[1] = test system: fibroblasts from NPC patients; assay: Relative lysosomal volume via LysoTracker; assay type: cell-based, human; conditions: 1 mM
Description: A fibroblast cell line from an NPC patient was treated for 3 days with N-acetyl-DL-leucine (1 mM) and relative lysosomal volume was quantified via LysoTracker, a fluorescent dye that accumulates in acidic organelles. Increased LysoTracker fluorescence is indicative of an increase in lysosomal size and/or number, and is a hallmark of NPC cells.

[2] = test system: Mucolipidosis Type IIIA (MLIIIA) patient fibroblasts; assay: Lysosomal volume via LysoTracker; assay type: cell-based, human; conditions: 1 mM, 6 days
[3] = test system: Sandhoff disease model, Hexb−/− mouse; assay: Bar crossing test; assay type: in vivo; conditions: Sandhoff mice, 0.1 g/kg from 3 weeks of age
Source text: This study made use of a mouse model of Sandhoff disease, the Hexb^−/− mouse, as descrbed in Jeyakumar et al. (Jeyakumar, M. et al. (1999) Proc. Natl. Acad. Sci. USA 96: 6388-6393). The bar crossing test is a method for assessing motor function in mice in which the mouse is placed hanging from the centre of a horizontal bar by its front limbs. A wild-type mouse with normal motor function will be able to engage its hind limbs and thereby move to one of the platforms at either end of the bar, and in doing so complete the test. […] In FIG. 7 B, acetyl-leucine treatment of 0.1 g/kg body weight was provided from 3 weeks of age. The acetyl-leucine treated Sandhoff mice retained the ability to complete the test up to 13 weeks of age (inclusive). Data shown is the mean of 6 mice per group. The treated Sandhoff mice retained the ability to complete the test up to 13 weeks of age (inclusive).

[4] = test system: Tay-Sachs disease patient fibroblasts; assay: Glycosphingolipid (GSL) levels via HPLC; assay type: cell-based, human; conditions: 1 mM for 6 days, p<0.05
[5] = test system: AB variant of Tay-Sachs disease patient fibroblasts; assay: Glycosphingolipid (GSL) levels via HPLC; assay type: cell-based, human; conditions: 1 mM for 6 days
[6] = test system: patients with Tay-Sachs disease; assay: Case studies, Tay-Sachs disease (SARA, SCAFI, MoCA); assay type: in vivo, human
Source text: For example, to evaluate overall neurological status, mDRS, a four-domain scale (ambulation, manipulation, language and swallowing), may be applied. Cerebellar function may be evaluated using SARA, an eight-item clinical rating scale (gait, stance, sitting, speech, fine motor function and taxis; range 0-40, where 0 is the best neurological status and 40 the worst), and SCAFI, comprising the 8-m-Walking-Time (8MW; performed by having patients walking twice as quickly as possible from one line to another excluding turning), 9-Hole-Peg-Test (9HPT) and the number of “PATA” repetitions over 10 s. Subjective impairment and quality of life may be evaluated using the EQ-5D-5L questionnaire and VAS. To assess ocular motor function, 3-dimensional videooculography (EyeSeeCam) may be used to measure the peak velocity of saccades, gain of smooth pursuit, peak slow phase velocity of gaze-evoked nystagmus (gaze-holding function), peak slow phase velocity of optokinetic nystagmus, and gain of horizontal vestibulo-ocular reflex. To evaluate the cognitive state, WAIS-R or WISC-IV, and MoCA, assessing different cognitive domains, including attention and concentration, executive functions, memory, language, visuoconstructional skills, conceptual thinking, calculations, and orientation with a maximum of 30 points and a cut-off score of 26, may be used. The skilled person will know how to perform these and other such tests.
The day following this examination, the patient was started on therapy with acetyl-leucine, at a dose of 3 g per day for the first week, followed by a dose of 5 g per day for the second week onwards.
The day of the examination, the patient was started on therapy with acetyl-leucine at a dose of 3 g per day for the first week, followed by a dose of 5 g per day for the second week onwards.
The patient was started on therapy with acetyl-leucine at a dose of 1.5 g per day for the first week, followed by a dose of 3 g per day for the second week onwards.

[7] = test system: patients with amyotrophic lateral sclerosis (ALS); assay: Case studies, amyotrophic lateral sclerosis; assay type: in vivo, human
Source text: The results were documented by video.

[8] = test system: patient with frontotemporal dementia with parkinsonism; assay: Case study, frontotemporal dementia with parkinsonism; assay type: in vivo, human
Source text: After approximately one month of acetyl-leucine treatment, medication was stopped and the patient was re-examined 13 days later.

[9] = test system: patients with ataxia with oculomotor apraxia type 4; assay: Case study, ataxia with oculomotor apraxia type 4; assay type: in vivo, human; conditions: AOA4 youngest sibling
Source text: In this case study, four patients (male siblings) suffered from, and were later diagnosed with, ataxia with oculomotor apraxia type 4. The older three siblings […], at the time of disease onset. […] The older siblings began treatment with acetyl-leucine […], respectively, and have been on the treatment for approximately four years. No long-term clinical data is available for these three patients.
The youngest sibling was […] at the time of onset. […] No long-term clinical data is available for the youngest sibling.

[10] = test system: amyloid precursor protein C-terminal fragments (APP-CTFs); assay: APP-CTF levels relative to total APP in the cerebellum; assay type: in vivo, mouse; conditions: NPC1−/− mice, 0.1 g/kg body weight daily from 3 weeks, sacrificed at 8 weeks
Description: The Niemann-Pick Disease Type C (NPC) mouse model shares a number of pathological features with Alzheimer's disease (AD) as described herein. […] Mice were sacrificed at 8 weeks of age. Levels of amyloid precursor protein C-terminal fragments (APP-CTFs) were evaluated relative to total amyloid precursor protein (APP) levels in the cerebellum for wild type, untreated wild type NPC1^−/− mice, and AL-treated wild type NPC1^−/− mice. Levels of microtubule-associated protein 1A/1B-light chain 3-phosphatidylethanolamine conjugate (LC3-II) were also evaluated relative to levels of tubulin loading control for wild type, untreated wild type NPC1^−/− mice, and AL-treated wild type NPC1^−/− mice.

[11] = test system: patient with progressive gait disorder; assay: Case study Example 26, quantitative gait analysis; assay type: in vivo, human
[12] = test system: patients with progressive supranuclear palsy; assay: Case studies, progressive supranuclear palsy; assay type: in vivo, human
[13] = ALS Patient 1, after a further 20 days
[14] = ALS Patient 2, after approximately 2 months

SMILES: CC(=O)NC(CC(C)C)C(=O)O (racemic) [acetyl-DL-leucine]
- LysoTracker fluorescence (lysosomal volume) ([1]; NPC patient of mild clinical severity): significant decrease in LysoTracker fluorescence
- LysoTracker fluorescence (lysosomal volume) ([1]; additional NPC patients of variable clinical severity, 72 hours): findings were replicated
- LysoTracker fluorescence vs untreated disease fibroblasts [2]: trend in reducing LysoTracker fluorescence toward control level
- Age up to which ability to complete the bar crossing test was retained (inclusive) [3]: up to 13 weeks of age
- Motor function and hind-limb mobility/engagement, bar-crossing test [3]: improved motor function and hind-limb mobility/engagement
- GSL storage [4]: decrease was statistically significant
- GSL levels [5]: trend towards decreased GSL levels
- Overall symptoms ([6]; Tay-Sachs Patient 1): improvement in symptoms
- Clinical re-examination ([6]; Tay-Sachs Patient 1, after four months): stable condition with slightly improved cognitive function but had deterioration of stance, gait and fine motor function
- Clinical re-examination ([6]; Tay-Sachs Patient 1, after one month, 3 g then 5 g per day): improved fine motor skills and reduced hand tremor
- Clinical re-examination ([6]; Tay-Sachs Patient 2, after one month, 3 g then 5 g per day): increased enunciation, improved postural stability, and enhanced cognitive function
- Clinical re-examination ([6]; Tay-Sachs Patient 3, after one month, 1.5 g then 3 g per day): increased fine motor skills
- Overall symptoms ([7]; ALS Patient 1): improvement in symptoms
- Speech after stopping treatment ([7]; ALS Patient 1, about 7 days plus 1-2 additional weeks off treatment): deterioration of speech
- Speech (patient report) ([7]; ALS Patient 1, after 15 days, 3 then 5 gram per day): significant improvement of speech
- Paresis of right foot-dorsiflexors / foot drop [7, 13]: foot drop had improved dramatically
- Sleep (patient report) [7, 13]: improvement in sleep
- Speech (patient report) [7, 13]: further improvement of speech
- Symptomatology after resuming treatment ([7]; ALS Patient 1, second resumption): improved symptomatology, in particular speech
- Motor function of the left hand [7, 14]: progredient deterioration of the motor function of the left hand
- Swallowing functions [7, 14]: remained stable
- Walking (patient report) [7, 14]: discrete improvement of walking
- Symptomatology (patient report) ([7]; ALS Patient 3, after one month): did not report improvement of symptomatology
- Symptomatology after suspension ([7]; ALS Patient 4, 10 days after therapy was suspended): worsening of symptomatology
- Symptomatology (patient report) ([7]; ALS Patient 4, after about one month): subjective improvement of dysphagia and less hypersalivation
- Symptoms after suspension of treatment ([8]; re-examined 13 days after stop): symptoms worsened
- Falls ([8]; under therapy): falls stopped
- Speech ([8]; under therapy): improvement of speech
- Gait ([8]; under therapy, 3 then 5 gram per day, about one month): significant improvement of gait
- Fine motor skills and speech (reported by mother) [9]: improved fine motor skills and improved speech at each age compared to their older siblings
- APP-CTF levels relative to total APP, cerebellum [10]: lowering of APP-CTFs
- Gait (patient and spouse report) ([11]; 3 gram per day for two weeks): considerable improvement of gait
- Functioning and quality of living (spouse report) ([11]; Day 42, 3 gram per day restarted): dramatic improvement
- Self-chosen gait velocity ([11]; Day 42, from 55 cm/sec): 62 cm/s
- Maximal gait velocity ([11]; Day 42, from 84 cm/sec): 130 cm/s
- Symptoms after medication was stopped ([11]; in vivo): worsening of symptoms
- Symptoms after stopping medication ([12]; PSP Patient 2, about two months later): no deterioration of symptoms after stopping medication
- Symptoms after stopping medication ([12]; PSP Patient 3, about two months later): no deterioration of symptoms after stopping medication
